The first test addresses T1, human CYP11B2 (Homo sapiens, UniProt P19099).
T1 construct: expressed in transfected cells; host or cells: V79 Chinese hamster cells
T1 sequence (P19099 25-503): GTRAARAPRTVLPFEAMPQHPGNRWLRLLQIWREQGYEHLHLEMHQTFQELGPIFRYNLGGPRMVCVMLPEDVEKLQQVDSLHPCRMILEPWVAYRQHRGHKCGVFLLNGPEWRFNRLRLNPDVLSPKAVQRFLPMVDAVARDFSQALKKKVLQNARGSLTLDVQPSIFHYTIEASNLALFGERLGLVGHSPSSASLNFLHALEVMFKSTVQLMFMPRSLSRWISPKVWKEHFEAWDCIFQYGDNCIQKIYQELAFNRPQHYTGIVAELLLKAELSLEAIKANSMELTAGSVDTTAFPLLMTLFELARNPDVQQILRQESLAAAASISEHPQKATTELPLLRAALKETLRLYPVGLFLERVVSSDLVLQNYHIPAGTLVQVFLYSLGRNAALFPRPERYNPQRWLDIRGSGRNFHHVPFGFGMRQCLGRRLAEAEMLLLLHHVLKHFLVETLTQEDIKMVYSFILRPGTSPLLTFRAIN
Briefly: Aldosterone inhibitory activity in V79 cells expressing human CYP11B2. The note with it: V79 Chinese hamster cells stably transfected with human CYP11B2; substrate 11-deoxycorticosterone 100 nM; read-out: IC50, inhibition of the production of aldosterone. The test is classed as cell-based. On the procedure: For the determination of aldosterone inhibitory activity, tests were carried out using V79 Chinese hamster cells stably transfected with human CYP11B2 or CYP11B1 and using assay protocols as described in Ehmer P B, Bureik M, Bernhardt R, Muller U, Hartmann R W. Development of a test system for inhibitors of human aldosterone synthase (CYP11B2): screening in fission yeast and evaluation of selectivity in V79 cells. J. Steroid Biochem. Mol. Biol. 2002 June; 81(2):173-9. The concentration of the substrate 11-deoxycorticosterone in the assay was 100 nM.
One may read the IC50 as the point on the concentration scale where inhibition reaches its midpoint. On to `CCCC(O)(c1nc2ccc(Cl)cc2s1)c1cnccc1OCC` (stereo not drawn) [Example 39, 1-(6-chlorobenzo[d]thiazol-2-yl)-1-(4-ethoxypyridin-3-yl)butan-1-ol], for which the IC50 was under 1000 nM.

In the case of `CCCC(O)(c1nc2ccc([N+](=O)[O-])cc2s1)c1cnccc1OCC` (stereo not drawn) [Example 40, 1-(4-ethoxypyridin-3-yl)-1-(6-nitrobenzo[d]thiazol-2-yl)butan-1-ol], the IC50 is under 1000 nM.

With `CCCC(O)(c1nc2ccc(F)cc2s1)c1cnccc1OCC` (stereo not drawn) [Example 41, 1-(4-ethoxypyridin-3-yl)-1-(6-fluorobenzo[d]thiazol-2-yl)butan-1-ol], the IC50 is under 1000 nM.

Turning to `CCCC(O)(c1nc2cccc(Cl)c2s1)c1cnccc1OCC` (stereo not drawn) [Example 42, 1-(7-chlorobenzo[d]thiazol-2-yl)-1-(4-ethoxypyridin-3-yl)butan-1-ol], the IC50 is under 1000 nM.

Take `CCCC(O)(c1nc2c(F)ccc(F)c2s1)c1cnccc1OCC` (stereo not drawn) [Example 43, 1-(4,7-difluorobenzo[d]thiazol-2-yl)-1-(4-ethoxypyridin-3-yl)butan-1-ol]: the IC50 was under 1000 nM.

As to `CCCC(O)(c1nc2cccc(OC)c2s1)c1cnccc1OCC` (stereo not drawn) [Example 44, 1-(4-ethoxypyridin-3-yl)-1-(7-methoxybenzo[d]thiazol-2-yl)butan-1-ol], the IC50 is under 1000 nM.

Consider `CCCC(O)(c1nc2ccc(C(F)(F)F)cc2s1)c1cnccc1OCC` (stereo not drawn) [Example 45, 1-(4-ethoxypyridin-3-yl)-1-(6-(trifluoromethyl)benzo[d]thiazol-2-yl)butan-1-ol], for which the IC50 was under 1000 nM.

Consider `CCCC(O)(c1nc2ccc(OC(F)(F)F)cc2s1)c1cnccc1OCC` (stereo not drawn) [Example 46, 1-(4-ethoxypyridin-3-yl)-1-(6-(trifluoromethoxy)benzo[d]thiazol-2-yl)butan-1-ol], for which the IC50 was under 1000 nM.

Turning to `CCCC(O)(c1nc2cccc(C(F)(F)F)c2s1)c1cnccc1OCC` (stereo not drawn) [Example 47, 1-(4-ethoxypyridin-3-yl)-1-(7-(trifluoromethyl)benzo[d]thiazol-2-yl)butan-1-ol], the IC50 was under 1000 nM.

With `CCCC(O)(c1nc2ccc(OC)cc2s1)c1cnccc1OCC` (stereo not drawn) [Example 48, 1-(4-ethoxypyridin-3-yl)-1-(6-methoxybenzo[d]thiazol-2-yl)butan-1-ol], the IC50 was under 1000 nM.

With `CCCC(O)(c1nc2ccc(OC(F)(F)F)cc2s1)c1cnccc1OC(C)C` (stereo not drawn) [Example 49, 1-(4-isopropoxypyridin-3-yl)-1-(6-(trifluoromethoxy)benzo[d]thiazol-2-yl)butan-1-ol], the IC50 is under 1000 nM.

Turning to `CCCC(O)(c1nc2cc(Cl)c(Cl)cc2s1)c1cnccc1OCC` (stereo not drawn) [Example 50, 1-(5,6-dichlorobenzo[d]thiazol-2-yl)-1-(4-ethoxypyridin-3-yl)butan-1-ol], the IC50 was under 1000 nM.

With `CCCOc1ccncc1C(O)(CCC)c1nc2ccc(OC(F)(F)F)cc2s1` (stereo not drawn) [Example 51, 1-(4-propoxypyridin-3-yl)-1-(6-(trifluoromethoxy)benzo[d]thiazol-2-yl)butan-1-ol], the IC50 was under 1000 nM.

For the compound `CCCC(O)(c1nc2cc3c(cc2s1)OC(F)(F)O3)c1cnccc1OCC` (stereo not drawn) [Example 52, 1-(2,2-difluoro-[1,3]dioxolo[4′,5′:4,5]benzo[1,2-d]thiazol-6-yl)-1-(4-ethoxypyridin-3-yl)butan-1-ol], the IC50 is under 1000 nM.

With `CCCC(O)(c1nc2ccc(Oc3ccc(OC(F)(F)F)cc3)cc2s1)c1cnccc1OCC` (stereo not drawn) [Example 54, 1-(4-ethoxypyridin-3-yl)-1-(6-(4-(trifluoromethoxy)phenoxy)benzo[d]thiazol-2-yl)butan-1-ol], the IC50 was under 1000 nM.

As to `CCCC(O)(c1nc2ccc(Oc3ccc(F)cc3)cc2s1)c1cnccc1OCC` (stereo not drawn) [Example 55, 1-(4-ethoxypyridin-3-yl)-1-(6-(4-fluorophenoxy)benzo[d]thiazol-2-yl)butan-1-ol], the IC50 is under 1000 nM.

In the case of `CCCC(O)(c1nc2cc(Br)c(OC(F)(F)F)cc2s1)c1cnccc1OCC` (stereo not drawn) [Example 56, 1-(5-bromo-6-(trifluoromethoxy)benzo[d]thiazol-2-yl)-1-(4-ethoxypyridin-3-yl)butan-1-ol], the IC50 is under 1000 nM.

As for `CCCC(O)(c1nc2ccc(OC(F)(F)F)c(Br)c2s1)c1cnccc1OCC` (stereo not drawn) [Example 57, 1-(7-bromo-6-(trifluoromethoxy)benzo[d]thiazol-2-yl)-1-(4-ethoxypyridin-3-yl)butan-1-ol], the IC50 is under 1000 nM.

On to `CCCC(O)(c1nc2cc(Cl)c(OC(F)(F)F)cc2s1)c1cnccc1OCC` (stereo not drawn) [Example 58, 1-(5-chloro-6-(trifluoromethoxy)benzo[d]thiazol-2-yl)-1-(4-ethoxypyridin-3-yl)butan-1-ol], for which the IC50 was under 1000 nM.

Regarding `CCCC(O)(c1nc2ccc(OC(F)(F)F)c(Cl)c2s1)c1cnccc1OCC` (stereo not drawn) [Example 59, 1-(7-chloro-6-(trifluoromethoxy)benzo[d]thiazol-2-yl)-1-(4-ethoxypyridin-3-yl)butan-1-ol], the IC50 was under 1000 nM.

With `CCCC(O)(c1nc2cc(C)c(OC(F)(F)F)cc2s1)c1cnccc1OCC` (stereo not drawn) [Example 60, 1-(4-ethoxypyridin-3-yl)-1-(5-methyl-6-(trifluoromethoxy)benzo[d]thiazol-2-yl)butan-1-ol], the IC50 is under 1000 nM.

In the case of `CCCC(O)(c1nc2ccc(OC(F)(F)F)c(C)c2s1)c1cnccc1OCC` (stereo not drawn) [Example 61, 1-(4-ethoxypyridin-3-yl)-1-(7-methyl-6-(trifluoromethoxy)benzo[d]thiazol-2-yl)butan-1-ol], the IC50 is under 1000 nM.

Turning to `CCCC(O)(c1nc2cc(F)c(OC(F)(F)F)cc2s1)c1cnccc1OCC` (stereo not drawn) [Example 62, 1-(4-ethoxypyridin-3-yl)-1-(5-fluoro-6-(trifluoromethoxy)benzo[d]thiazol-2-yl)butan-1-ol], the IC50 is under 1000 nM.

On to `CCCOc1ccncc1C(O)(CCC)c1nc2cc(Cl)c(OC(F)(F)F)cc2s1` (stereo not drawn) [Example 63, 1-(5-chloro-6-(trifluoromethoxy)benzo[d]thiazol-2-yl)-1-(4-propoxypyridin-3-yl)butan-1-ol], for which the IC50 is under 1000 nM.

In the case of `CCCOc1ccncc1C(O)(CCC)c1nc2ccc(OC(F)(F)F)c(Cl)c2s1` (stereo not drawn) [Example 64, 1-(7-chloro-6-(trifluoromethoxy)benzo[d]thiazol-2-yl)-1-(4-propoxypyridin-3-yl)butan-1-ol], the IC50 is under 1000 nM.

For the compound `CCCC(O)(c1nc2cc(Cl)c(OCC(F)(F)F)cc2s1)c1cnccc1OCC` (stereo not drawn) [Example 69, 1-(5-chloro-6-(2,2,2-trifluoroethoxy)benzo[d]thiazol-2-yl)-1-(4-ethoxypyridin-3-yl)butan-1-ol], the IC50 is under 1000 nM.

`CCCC(O)(c1nc2ccc(Br)cc2s1)c1cnccc1OC` (stereo not drawn) [Example 70, 1-(6-bromobenzo[d]thiazol-2-yl)-1-(4-methoxypyridin-3-yl)butan-1-ol]: the IC50 is under 1000 nM.

Consider `CCCC(O)(c1nc2ccc(C#N)cc2s1)c1cnccc1OCC` (stereo not drawn) [Example 72, 1-(6-cyanobenzo[d]thiazol-2-yl)-1-(4-ethoxypyridin-3-yl)butan-1-ol], for which the IC50 was under 1000 nM.

Regarding `CCCC(O)(c1nc2ccc(C(N)=O)cc2s1)c1cnccc1OCC` (stereo not drawn) [Example 73, 2-(1-(4-ethoxypyridin-3-yl)-1-hydroxybutyl)benzo[d]thiazole-6-carboxamide], the IC50 is under 1000 nM.

The target of the next test is T2, aldosterone synthase (Homo sapiens, UniProt P19099).
T2 construct: host or cells: H295R human adrenocortical carcinoma cells
T2 sequence (P19099 25-503): T1 sequence (P19099 25-503)
Briefly: Ang-II stimulated aldosterone production in H295R cells (ELISA). The test is classed as cell-based. As to conditions: Ang-II stimulated. In general terms: An ELISA detects its analyte on a solid surface through an enzyme-linked reagent.
Procedure: To test the activity of compounds in a cell-based assay, a well-established assay described in the literature was used [Muller-Vieira U, Angotti M, Hartmann R W. The adrenocortical tumor cell line NCI-H295R as an in vitro screening system for the evaluation of CYP11B2 (aldosterone synthase) and CYP11B1 (steroid-11beta-hydroxylase) inhibitors. […] In brief, human adrenocortical carcinoma cells (H295R; ATCC CRL-2128) were plated in 96-well plates and the effect of compounds on angiotensin-II (Ang-II) stimulated aldosterone production was determined in the supernatant using an ELISA kit (Genway 40-521-475012). […] Compounds were tested in the aldosterone production assay at various concentrations and from dose-response inhibition curves the % inhibition at specific concentrations and the IC50 were calculated.
`CCOC(=O)c1cncn1[C@H](C)c1ccccc1` [etomidate]: the “Ang-II stimulated aldosterone production” value was “significantly inhibited”.

Regarding `CC(=O)N1CCN(c2ccc(OCC3COC(Cn4ccnc4)(c4ccc(Cl)cc4Cl)O3)cc2)CC1` (stereo not drawn) [ketoconazole], the “Ang-II stimulated aldosterone production” value is reported as “significantly inhibited”.

Still in this test, the particulars now being: basal.
Turning to `CCOC(=O)c1cncn1[C@H](C)c1ccccc1` [etomidate], the basal aldosterone production result is given as “significantly inhibited”.

Take `CC(=O)N1CCN(c2ccc(OCC3COC(Cn4ccnc4)(c4ccc(Cl)cc4Cl)O3)cc2)CC1` (stereo not drawn) [ketoconazole]: the basal aldosterone production result was “significantly inhibited”.

The values are drawn from US11434234B2, “Methods and agents for treating disease” (ANGION BIOMEDICA CORP., priority 2014, dated 2022).
